Data on 1 compound can be found in US8614240B2, “Benzoxazole derivatives having inhibitory activity against interleukin-6, preparation method thereof, and pharmaceutical composition containing the same” (EWHA University-Industry Collaboration Foundation, priority 2010, dated 2013).

The subject of data set [1] is IL-6 induced STAT3 phosphorylation. As to the kind of experiment: Test for inhibitory activity against STAT3 phosphorylation induced by IL-6 (Western blot, HepG2). Format: cell-based, human. The conditions noted are these: HepG2, 1, 3, 10, 30, 100 ug/ml, 10 ng/ml IL-6 (FIG. 4). On the procedure:
HepG2 cells were divisionally inoculated in 6-well plate in the ratio of 5×10^4 cells/well, and grown to be 80% confluent. After changing to a serum-free medium and incubating for 6 hours, cells were pre-treated with the samples for one hour. […] Then the mixture was centrifuged (13,000×g, 15 minutes) to obtain a lysate as the supernatant. Herein, HepG2 cells not treated with IL-6 and the samples were used as the control group. The concentration of proteins was quantified by means of Bio-Rad DC protein assay kit, and the protein was loaded on 10% SDS-polyacrylamide gel (SDS-PAGE) and electrophoresed at 30 mA for 2 hours. After completion of the electrophoresis, the protein on gel was transcribed into PVDF membrane (Westran® S, pore size […]) at 90V for 90 minutes, and the transcribed membrane was blocked with Tris-buffered solution (T-TBS; 50 mM Tri-HCl, pH 7.6, 150 mM NaCl, 0.2% Tween-20, 5% skim milk) at 4° C. for 12 hours, and washed five time with T-TBS. The membrane was treated with polyclonal antibodies of phospho-STAT3 (1:1000 dilutions, respectively) as the primary antibody for 2 hours. After washing five times with T-TBS, the membrane was reacted with HRP-conjugated anti-rabbit antibody (1:5000 dilutions) as the secondary antibody for one hour. After washing with T-TBS, the film was developed in the dark room by means of ECL.
A general note: In western blotting, separated proteins are transferred to a membrane and probed.

Another data set deals with C57BL/6 female mice. As to the kind of experiment: In vivo test of toxicity of the compounds (body weight, appearance). On the procedure:
In the animal experiments, C57BL/6 female mice (control group 4 mice, test group (dose group) 4 mice) obtained from Central Lab. Animal Inc. were used. The experimental animals were acclimated by breeding them at the place established with temperature 23 ±3° C., relative humidity 50 ±10%, lighting time 12 hours (6 a.m.-6 p.m.), number of ventilation 10-20 times/hour, and illuminance 150-300 Lux, for one week. All the testers who evaluated the activity in animals worn high-pressure steam sterilized (121° C., 20 minutes) working clothes, hood, mask and gloves, and conducted the experiment. During the periods of accommodation and quarantine the experimental animals were accommodated in a polycarbonate-made shoes box-type breeding cage (260W×410L×200H mm) by 4 mice in each cage. During the periods of administration and observation, the experimental animals were accommodated in a wire breeding cage (205W×350 L×175H mm) with one mouse in each cage. During the period of experiments, the breeding cages were discriminated with attaching the labels in which the experiment numbers and the animal numbers were entered. The animals were allowed to freely ingest a radiation-sterilized (25 kGy, Picolab) solid feed for experimental animals as the feed, and tap water, which was sterilized with an autoclave, as the drinking water by means of a water bottle. […]

The subject of another data set is Respective cell lines. The data set is described as follows: Cytotoxicity assay (MTT). It counts as cell-based. The settings on record: 48 hours. On the procedure: In testing the compounds in cell lines, if cells are killed due to a toxicity of the compounds at the treatment concentration, a significant result cannot be obtained. Therefore, the toxicity assay was conducted by treatment with the compounds as follows. Respective cell lines were maintained on 96-well cell culture plate in the medium comprising 10% FBS with 1% Penicillin G/streptomycin, and then incubated under 37° C., 5% CO2 condition. All the experiments were repeated three times. The samples were properly diluted, and then cells were treated with the diluted samples at the concentrations of 1, 3, 10, 30, 100 μg/ml. After 48 hours, 10% (v/v) 5 mg/mL 3-(4,5-dimethylthiazol-2-yl)-2,5-diphenyltetrazolium bromide (MTT; Sigma) was added to the cell culture. After 3 hours of the incubation, the medium was aspirated and washed with PBS. After adding DMSO (100 μl), the mixture was gently agitated for 5 minutes. The absorbance was measured at 570 nm by means of VERSA max microplate reader (Molecular Devices Inc.), and the average absorbance (±SE) values as obtained from three experiments were compared with t-test, a statistical significance of P<0.05. When Compounds 1 and 3 were used at the concentrations of 1, 3, 10, 30, 100 μg/ml, the survival rates of cells were 94, 76, 70, 67, 30%, respectively, by the treatment with Compound 1, and 74, 71, 65, 57, 19%, respectively, by the treatment with Compound 3. It means that at least 50% of cells survive at the concentration (for example, 30 μg/ml) of the compounds of the present invention for measuring IL-6 inhibitory activity.

In data set [2] the test system is Zymosan A-induced paw inflammation in C57BL/6 mice. As to the kind of experiment: Zymosan A-induced paw inflammation, effect of alleviating the inflammation. It counts as in vivo, mouse. The conditions noted are these: for Difference between the thicknesses of the right paw and left paw: Zymosan and 30 mg/kg Compound 3 into right paw. On the procedure: For this experiment, C57BL/6 mice were obtained from Central Lab. Animal Inc., and acclimated for one week and then used in the experiment. The gender of animals used in the experiment was female, and 4 mice were used in each of the control group and the test group (Doe group). To experiment Compound 3's effect of alleviating the inflammation, the thicknesses of paws having the inflammation is reduced by injecting 3 mg of Zymosan A and 30 mg/kg of Compound 3 into right paws of the experimental animals, and both the paw thicknesses in the control group to which Zymosan A was administered to induce the inflammation and the control group having no treatment were measured every day, and the results are as shown in FIG. 7.
When the paw thickness was measured every day after inducing the inflammatory reaction by Zymosan, a difference between the thicknesses of the right paw and left paw was 8.5, 7.0, 6.5, 5.5, 5.6 mm. It could be identified that by treatment with Zymosan and Compound 3 the inflammatory reaction was alleviated so that a difference between paw thicknesses was 6.0, 3.0, 2.0, 1.9, 1.8 mm. A difference between paw thicknesses could also be identified in real photographs of the group treated only with Zymosan, the test group treated with Zymosan and Compound 3, and the control group having no treatment of the experimental animals on the 6th day in the inflammation alleviating assay (FIG. 8).

Each structure is given as a SMILES string.

Consider `CCc1ccc(Nc2nc3cc(NC(=O)c4ccccc4)ccc3o2)cc1` [Compound 3, N-(2-(4-ethylphenylamino)benzo[d]oxazol-5-yl)benzamide], for which the “Inhibitory activity on IL-6 induced STAT3 phosphorylation” value in data set [1] is reported as “inhibited IL-6 expression in a concentration-dependent manner”. The “Change in body weight compared to the control group” value in the data set on C57BL/6 female mice (30 mg/kg intraperitoneally once a day, 5 days, C57BL/6 female mice (FIG. 6)) is recorded as “did not show any change in the weight”. The “Toxic symptom in appearance” value with C57BL/6 female mice (after 6 days, C57BL/6 female mice) was “did not show any toxic symptom in appearance”. In addition, the “Survival rate of cells” value in the data set on Respective cell lines (1 μg/ml) stood at 74%; in the data set on Respective cell lines (3 μg/ml), 71%; in the data set with Respective cell lines (10 μg/ml) it was 65%; with Respective cell lines (30 μg/ml), 57%; in the data set on Respective cell lines (100 μg/ml) it was 19%. In data set [2] (30 mg/kg, Zymosan A-induced paw inflammation (FIGS. 7, 8)), the “Effect of alleviating the inflammation” value is given as “exhibited the effect of alleviating the inflammation”. In addition, the “Difference between the thicknesses of the right paw and left paw” value is recorded as 6.0 mm in data set [2] (1st daily measurement); 3.0 mm in data set [2] (2nd daily measurement); 2.0 mm in data set [2] (3rd daily measurement); 1.9 mm in data set [2] (4th daily measurement); 1.8 mm in data set [2] (5th daily measurement).
